Data as given in patent publication US10596127B2, “Composition for reducing the frequency of urination, method of making and use thereof” (WELLESLEY PHARMACEUTICALS, LLC, priority 2013, dated 2020).

Key:
[1] = test system: TNFα secretion by normal human bladder smooth muscle cells; test: TNFα ELISA of normal human bladder smooth muscle cell supernatants; type: cell-based; conditions: for TNFα (pg/ml) Subject 2 / TNFα (pg/ml) Subject 1: Carbachol 10^−3 M plus analgesic 50 μM; for TNFα (pg/ml) Subject 2: carbachol alone 286, unstimulated <5; for TNFα (pg/ml) Subject 1: carbachol alone 350, unstimulated <5, mean of duplicates; for effect on the effect of carbachol and LPS on TNFα responses: LPS-induced responses: analgesic at either 5 μM or 50 μM
Experimental: Culture supernatants were subjected to cytokine-specific ELISA to determine IL-1β, IL-6 and TNF-α responses in cultures of macrophages treated with analgesic, LPS alone or a combination of LPS and analgesic. The assays were performed on Nunc MaxiSorp Immunoplates (Nunc) coated overnight with 100 μl of anti-mouse IL-6, TNF-α mAbs (BD Biosciences) or IL-1β mAb (R&D Systems) in 0.1 M sodium bicarbonate buffer (pH 9.5). After two washes with PBS (200 μl per well), 200 μl of PBS 3% BSA were added in each well (blocking) and the plates incubated for 2 hours at room temperature. Plates were washed again two times by addition of 200 μl per well, 100 μl of cytokine standards and serial dilutions of culture supernatants were added in duplicate and the plates were incubated overnight at 4° C. Finally, the plates were washed twice and incubated with 100 μl of secondary biotinylated anti-mouse IL-6, TNFα mAbs (BD Biosciences) or IL-1β (R&D Systems) followed by peroxidase-labelled goat anti-biotin mAb (Vector Laboratories). The colorimetric reaction was developed by the addition of 2,2′-azino-bis(3)-ethylbenzylthiazoline-6-sulfonic acid (ABTS) substrate and H2O2 (Sigma) and the absorbance measured at 415 nm with a Victor® V multilabel plate reader (PerkinElmer).
Normal human bladder smooth muscle cells were isolated by enzymatic digestion from macroscopically normal pieces of human bladder. Cells were expended in vitro by culture at 37° C. in a 5% CO2 atmosphere in RPMI 1640 supplemented with 10% fetal bovine serum, 15 mM HEPES, 2 mM L-glutamine, 100 U/ml penicillin, and […] of streptomycin and passage once a week by treatment with trypsin to detach cells followed by reseeding in a new culture flask. The first week of culture, the culture medium was supplemented with 0.5 ng/ml epidermal growth factor, 2 ng/ml fibroblast growth factor, and 5 μg/ml insulin.
Bladder smooth muscle cells trypsinized and seeded in microculture plates at a cell density of 3×10^4 cells per well in 100 μl were treated with analgesic solutions (50 μl/well) either alone or together carbachol (10-Molar, 50 μl/well), as an example of non-inflammatory stimuli, or lipopolysaccharide (LPS) of Salmonella typhimurium (1 μg/ml, 50 μl/well), as an example of […] stimuli. When no other effectors were added to the cells, 50 μl of RPMI 1640 without fetal bovine serum were added to the wells to adjust the final volume to 200 μl.
After 24 hours of culture, 150 μl of culture supernatants were collected, spun down for 2 min at 8,000 rpm at 4° C. to remove cells and debris and stored at −70° C. for analysis of Prostaglandin E2 (PGE2) responses by ELISA. Cells were fixed, permeabilized and blocked for detection of COX2 using a fluorogenic substrate. In selected experiment cells were stimulated 12 hours in vitro for analysis of COX2, PGE2 and cytokine responses.
COX2 and PGE2 responses were analyzed as described in Example 3. Cytokine responses were analyzed as described in Example 2.

[2] = test system: expression of co-stimulatory molecules by Raw 264 macrophage cells; test: Flow cytometry of co-stimulatory molecules CD40 and CD80 on macrophages treated with analgesic, with or without LPS; type: cell-based, Murine; conditions: for effect on basal expression of co-stimulatory molecules CD40 and CD80 by macrophages: 5 × 10^5, 5 × 10^4, 5 × 10^3, 5 × 10^2, 50 and 5 nM
Experimental: Murine RAW264.7 or J774 macrophage cells (obtained from ATCC) were used in this study. Cells were maintained in a culture medium containing RPMI 1640 supplemented with 10% fetal bovine serum (FBS), 15 mM HEPES, 2 mM L-glutamine, 100 U/ml penicillin, and 100 μg/ml of streptomycin. Cells were cultured at 37° C. in a 5% CO2 atmosphere and split (passages) once a week.
RAW264.7 macrophage cells were seeded in 96-well plates at a cell density of 1.5×10^5 cells per well in 100 μl of the culture medium. […] Briefly, the analgesics were dissolved in FBS-free culture medium (i.e., RPMI 1640 supplemented with 15 mM HEPES, 2 mM L-glutamine, 100 U/ml penicillin, and 100 μg/ml of streptomycin), and diluted to desired concentrations by serial dilution with the same medium. For cells treated with analgesic in the absence of LPS, 50 μl of analgesic solution and 50 μl of FBS-free culture medium were added to each well. For cells treated with analgesic in the presence of LPS, 50 μl of analgesic solution and 50 μl of LPS (from Salmonella typhimurium) in FBS-free culture medium were added to each well. All conditions were tested in duplicates.
After 24 or 48 hours of culture, 150 μl of culture supernatants were collected, spun down for 2 min at 8,000 rpm at 4° C. to remove cells and debris and stored at −70° C. for analysis of cytokine responses by ELISA. The cells were collected and washed by centrifugation (5 min at 1,500 rpm at 4° C.) in 500 μl of Phosphate buffer (PBS). Half of the cells were then snap frozen in liquid nitrogen and stored at −70° C. The remaining cells were stained with fluorescent monoclonal antibodies and analyzed by flow cytometry.
For flow cytometry analysis, macrophages were diluted in 100 μl of FACS buffer (phosphate buffered saline (PBS) with 2% bovine serum albumin (BSA) and 0.01% NaN3) and stained 30 min at 4° C. by addition of FITC-conjugated anti-CD40, PE-conjugated anti-CD80, PE-conjugated anti-CD86 antibody, anti MHC class II (I-A^d) PE (BD Bioscience). Cells were then washed by centrifugation (5 min at 1,500 rpm at 4° C.) in 300 μl of FACS buffer. After a second wash, cells were re-suspended in 200 μl of FACS buffer and the percentage of cells expressing a given marker (single positive), or a combination of markers (double positive) were analyzed with the aid of an Accuri C6 flow cytometer (BD Biosciences).

[3] = analgesic alone, 5 nM, negative control 20.6
[4] = analgesic alone, 50 nM, negative control 20.6
[5] = analgesic alone, 500 nM, negative control 20.6
[6] = analgesic alone, 5 × 10^3 nM, negative control 20.6
[7] = analgesic alone, 5 × 10^4 nM, negative control 20.6
[8] = analgesic alone, 5 × 10^5 nM, negative control 20.6
[9] = analgesic alone, 5 × 10^6 nM, negative control 20.6
[10] = analgesic plus LPS, analgesic 5 nM, LPS 5 ng/ml alone 77.8
[11] = analgesic plus LPS, analgesic 50 nM, LPS 5 ng/ml alone 77.8
[12] = analgesic plus LPS, analgesic 500 nM, LPS 5 ng/ml alone 77.8
[13] = analgesic plus LPS, analgesic 5 × 10^3 nM, LPS 5 ng/ml alone 77.8
[14] = analgesic plus LPS, analgesic 5 × 10^4 nM, LPS 5 ng/ml alone 77.8
[15] = analgesic plus LPS, analgesic 5 × 10^5 nM, LPS 5 ng/ml alone 77.8
[16] = analgesic plus LPS, analgesic 5 × 10^6 nM, LPS 5 ng/ml alone 77.8

Row | SMILES | TNFα (pg/ml) Subject 2 [1] [pg/mL] | TNFα (pg/ml) Subject 1 [1] [pg/mL] | effect on the effect of carbachol and LPS on TNFα responses [1] | effect on expression of the co-stimulatory molecules at the highest dose ([2]; 5 × 10^6 nM) | effect on basal expression of co-stimulatory molecules CD40 and CD80 by macrophages [2] | % Positive CD40+CD80+ [2, 3] [%] | % Positive CD40+CD80+ [2, 4] [%] | % Positive CD40+CD80+ [2, 5] [%] | % Positive CD40+CD80+ [2, 6] [%] | % Positive CD40+CD80+ [2, 7] [%] | % Positive CD40+CD80+ [2, 8] [%] | % Positive CD40+CD80+ [2, 9] [%] | % Positive CD40+CD80+ [2, 10] [%] | % Positive CD40+CD80+ [2, 11] [%] | % Positive CD40+CD80+ [2, 12] [%] | % Positive CD40+CD80+ [2, 13] [%] | % Positive CD40+CD80+ [2, 14] [%] | % Positive CD40+CD80+ [2, 15] [%] | % Positive CD40+CD80+ [2, 16] [%] | TNFα responses to stimulus alone ([1]; no analgesic)
1 | CC(=O)Nc1ccc(O)cc1 [Acetaminophen, N-acetyl-para-aminophenol] | 164 | 138 | suppress | enhance | inhibit | 7.5 | 9.5 | 8.3 | 9.8 | 12 | 18 | 63 | 62.1 | 66.2 | 66.8 | 68.8 | 72.4 | 82.7 | 95.1 | 
2 | CC(=O)Oc1ccccc1C(=O)O [Aspirin, Acetylsalicylic acid] | 142 | 110 | suppress | enhance | inhibit | 7.5 | 10.5 | 8 | 8.3 | 10.3 | 11 | 44 | 65.7 | 70.1 | 75.8 | 74.7 | 78.7 | 80 | 84.5 | 
3 | C[N+](C)(C)CCOC(N)=O [Carbachol, carbachol] |  |  |  |  |  |  |  |  |  |  |  |  |  |  |  |  |  |  |  | induced low, but significant TNFα and IL-6 responses
4 | CC(C)Cc1ccc(C(C)C(=O)O)cc1 (stereo not drawn) [Ibuprofen, ibuprofen] | 121 | 146 | suppress | enhance | inhibit | 5.8 | 4.9 | 6.0 | 7.9 | 7.7 | 6.4 |  | 60.3 | 63.7 | 71.1 | 72.9 | 77.9 | 67 |  | 
5 | COc1ccc2cc([C@H](C)C(=O)O)ccc2c1 [Naproxen] | 137 | 129 | suppress | enhance | inhibit | 5.2 | 6.8 | 7.2 | 6.9 | 7.7 | 9.6 | 37 | 73 | 72 | 68.8 | 71.0 | 77.1 | 74.1 | 66.0 | 
